“And” between values parts separate entries of the source, which are not always exact repeats. Equal values may be shown once.
test: GSK PKIS2: Screen against O. lienalis microfilariae, single point, at 3.1uM to assess reduction in motility. Compounds were also tested for cytotoxicity against Rhesus Monkey LLCMK2 cells.; format: functional, Onchocerca lienalis, LLC-MK2; details: CELL_LINE LLCMK2; CELL_SUPPLIER ECACC; CONC 3.1 uM; ORGANISM_SUPPLIER Extracted from peri-umbilical skin obtained from naturally infected cattle in the UK; temperature 37 degree C

| Structure (SMILES) | MOTILITY REDUCTION/CYTOTOXICITY |
| --- | --- |
| COc1cccc(C2=C(Nc3cccc(O)c3)C(=O)NC2=O)c1 | 13.4% |
| Nc1n[nH]c2cc(-c3ccccn3)ccc12 | 0% |
| Fc1ccccc1COc1ccc(Nc2ncnc3ccc(-c4nnc(C(F)(F)F)o4)cc23)cc1Cl | 0% |
| Cc1cccc(-c2nc(Nc3ccc4nn[nH]c4c3)c3ccccc3n2)n1 | 20% |
| c1ccc(Cn2ncc3cc(Nc4ncnc5ccccc45)ccc32)cc1 | 0% |
| CNc1cc(-c2ccc3c(N)n[nH]c3c2)nc(N)n1 | 0% |
| Cc1ccc(NC(=O)Nc2ccccc2)cc1-c1ccc(C(=O)Nc2ccncc2)cc1 | 100% |
| Cc1ccccc1COc1cc(-n2cnc3cc(Cl)ccc32)sc1C(N)=O | 0% |
| N#Cc1cnc2cc(-c3cnc(CNCCN4CCOCC4)s3)ccc2c1Nc1ccc(Oc2ccccc2)cc1 | 16.7% |
| CCCC(=O)Nc1n[nH]c2ncc(-c3cccc4ccccc34)cc12 | 0% |
| Cc1ccc(NC(=O)c2cccc(C#N)c2)cc1-c1ccc(C(=O)Nc2ccncc2)cc1 | 73.4% |
| Cn1cncc1-c1cc2c(Nc3ccc(OCc4ccccc4)cc3)ncnc2cn1 | 0% |
| Cn1cncc1-c1ccc2ncnc(Nc3ccc(OCc4ccccc4)cc3)c2c1 | 0% |
| CCn1c(-c2c(N)noc2C)nc2cnccc21 | 0% |
| Cc1ccc(F)c(C(=O)Nc2cccc(-c3nn4ccccc4c3-c3ccnc(Nc4cccc(F)c4)n3)c2)c1F | 0% |
| COc1ccc(Nc2nccc(N3CCC(NC(=O)c4cccc(C#N)c4)C3)n2)cc1 (configuration not stated) | 0% |
| COc1ccc(-c2nc3n(c2-c2ccncc2)CCC3)cc1 | 0% |
| Nc1ncnc2occ(-c3ccc4c(c3)CCN4C(=O)Cc3cc(F)ccc3F)c12 | 16.7% |
| COc1ccc(C[C@@H](CN)NC(=O)c2cc(Br)c(-c3ccnc4[nH]ccc34)s2)cc1 | 33.4% |
| CC(C)(C)n1cnc2c(N)ncnc21 | 0% |
| NC(=O)Nc1sc(-c2ccc(F)cc2)cc1C(N)=O | 33.4% |
| Cc1ccc(NC(=O)c2ccc(Cl)c(Cl)c2)cc1-c1ccc(C(=O)Nc2ccncc2)cc1 | 26.7% |

| Structure (SMILES) | MOTILITY REDUCTION/CYTOTOXICITY |
| --- | --- |
| COC(=O)c1cccc(NC(=O)NC2CCN(c3ccnc(Nc4ccc(OC)cc4)n3)C2)c1 (configuration not stated) | 66.7% |
| CCn1c(-c2nonc2N)nc2ccccc21 [GW549034X] | 0% |
| CS(=O)(=O)CCNCc1ccc(-c2ccc3ncnc(Nc4ccc(OCc5ccccc5)c(Cl)c4)c3c2)o1 | 20% |
| Nc1cccc(-c2ccc3c(N)n[nH]c3c2)n1 | 0% |
| Cc1occc1-c1nc(N)c(OC[C@@H](N)Cc2c[nH]c3ccccc23)cc1-c1cc2c(C)n[nH]c2cn1 | 0% |
| CC(C)Oc1ccc2c(-c3ccnc(Nc4ccc(N5CCN(C)CC5)cc4)n3)cnn2n1 | 0% |
| CNC(=O)c1ccccc1Nc1nc(Nc2cccc(CS(C)(=O)=O)c2)ncc1C | 33.4% |
| CN(C)CCN(C)C(=O)c1cc(-c2ccncc2)c(-c2ccc(Cl)c(O)c2)o1 | 20% |
| CN(C)CCOc1ccc(-c2cc(-c3ccc(Cl)c(O)c3)c(-c3ccncc3)[nH]2)cc1 | 0% |
| Cc1cc(-c2ccc3c(c2)CC[C@@H](N[C@@H](C)c2ccccc2)C3)cnc1N | 33.4% |
| CCn1c(-c2ccncc2)nc2cnccc21 | 0% |
| Fc1ccc(-c2nc3n(c2-c2ccncc2)CCS3)cc1 | 13.4% |
| Clc1cccc(-c2nc(Nc3ccncc3)c3ccccc3n2)c1 | 0% |
| COc1cc2ncnc(Nc3cccc(Br)c3)c2cc1OC | 60% |
| Nc1nc(-c2cccnc2)c(-c2ccnc3ccccc23)s1 | 33.4% |
| Cn1cc(-c2ccc3c(c2)CCN3C(=O)Cc2cccc(C(F)(F)F)c2)c2c(N)ncnc21 | 0% |
| Oc1ccc2ncnc(Nc3ccc(OCc4ccccc4)cc3)c2c1 | 100% |
| COc1cc(Nc2nccc(-c3c(-c4cccc(NC(=O)c5c(F)cccc5F)c4)nn4ncccc34)n2)cc(OC)c1OC | 16.7% |
| Fc1cc(Cl)ccc1Nc1ccnc2cc(-c3ccc(CN4CCOCC4)o3)ccc12 | 0% |
| Nc1nccc2scc(-c3ccc4c(c3)CCN4C(=O)Cc3cc(F)ccc3F)c12 | 0% |
| CCCc1ccc(S(=O)(=O)NC2CCN(c3ccnc(Nc4ccc(OC)cc4)n3)C2)cc1 (configuration not stated) | 0% |
| O=c1cc(N2CCOCC2)nc2n(Cc3cccc(Cl)c3Cl)c3ccccc3n12 | 0% |

| Structure (SMILES) | MOTILITY REDUCTION/CYTOTOXICITY |
| --- | --- |
| CN(C)CCNS(=O)(=O)c1ccc(-c2ccnc3[nH]ccc23)cc1 | 26.7% |
| Cc1ccc(NC(=O)Nc2ccc(Cl)cc2)cc1-c1ccc(C(=O)Nc2ccncc2)cc1 | 86.7% |
| COc1ccc(-c2oc3ncnc(N)c3c2-c2ccc(OC)cc2)cc1 | 20% |
| CCn1c(-c2nonc2N)nc2cncc(CNC3CCNCC3)c21 | 0% |
| O=C(Nc1cccc(-c2nn3ccccc3c2-c2ccnc(Nc3cccc(C(F)(F)F)c3)n2)c1)c1c(F)cccc1F | 26.7% |
| CC(=O)Nc1ccc(COc2ccc(Nc3ccnc4cc(-c5ccccn5)ccc34)cc2)cc1 | 100% |
| O=c1cc(N2CCOCC2)nc2n(Cc3ccc(F)c(Cl)c3)ccn12 | 0% |
| COC(=O)Nc1nc2ccc(Oc3ccc(NC(=O)Nc4cc(C(F)(F)F)ccc4F)cc3)cc2n1C | 0% |
| COc1ccc(-n2cnc3c(N)ncnc32)cc1 | 0% |
| COc1ccc(CNC(=O)NC2CCN(c3ccnc(Nc4ccc(F)cc4)n3)C2)cc1 (configuration not stated) | 0% |
| COc1cc2nccc(Nc3cccc(Oc4ccccc4)c3)c2cc1OC | 0% |
| COC(=O)c1cccc(NC(=O)NC2CCN(c3ccnc(Nc4cc(OC)c(OC)c(OC)c4)n3)C2)c1 (configuration not stated) | 66.7% |
| CSc1ccc(NC2=C(c3ccccc3Cl)C(=O)NC2=O)cc1 | 0% |
| COc1cc(Nc2nccc(-c3c(-c4cccc(NC(=O)c5c(F)cccc5F)c4)nn4ccccc34)n2)cc(OC)c1OC | 20% |
| CC(=O)N1CCN(c2ccc(Nc3nccc(-c4sc(C(C)C)nc4-c4cccc(NS(=O)(=O)c5cccc(Cl)c5)c4)n3)cn2)CC1 | 0% |
| O=C(Nc1n[nH]c2cc(-c3ccoc3)ccc12)C1CC1 | 13.4% |
| O=c1cc(N2CCOCC2)nc2n(Cc3cccc(Cl)c3)ccn12 | 0% |
| O=C(NCCNc1ccnc(Nc2ccc(F)cc2)n1)Nc1ccccc1F | 0% |
| O=C(Nc1n[nH]c2nc(-c3cccs3)c(Br)cc12)C1CCCC1 | 0% |
| NC(=O)c1sc(-n2cnc3ccccc32)cc1OCc1ccccc1F | 20% |
| Nc1nccc(-c2ccc3c(N)n[nH]c3c2)n1 | 0% |
| O=c1[nH]ccc2nc(N[C@@H]3CCCNC3)nc(Nc3ccc(S(=O)(=O)N4CCOCC4)cc3)c12 | 46.7% |

same assay, conditions: CELL_LINE LLCMK2; CELL_SUPPLIER ECACC; CONC 3.1 uM; ORGANISM_SUPPLIER Extracted from peri-umbilical skin obtained from naturally infected cattle in the UK; temperature 37 degree C; 3.1 µM

| Structure (SMILES) | MOTILITY REDUCTION/CYTOTOXICITY |
| --- | --- |
| CSc1nn2c(=O)cc(N3CCOCC3)nc2n1Cc1cccc(C(F)(F)F)c1C | 16.7% and 0% |
